Measured values taken from patent US4072683A, “3,4-Dihydrocarbostyril derivatives” (Otsuka Pharmaceutical Co., Ltd., priority 1974, dated 1978).
Like-named read-outs stand apart in the source and are kept apart here.

What was measured:
β-adrenergic nerves = test: Antagonistic activity against isoproterenol (β-adrenergic nerves blocking activity), anesthetized dogs; assay type: in vivo, Mongrel dogs; settings: Canis lupus familiaris, iv, isoproterenol 0.3 μg/kg, dog; for inhibition at 0.0001 mg/kg: 0.1 μg/kg i.v.; for inhibition at 0.001 mg/kg: 1.0 μg/kg i.v.; for inhibition at 0.01 mg/kg: 10 μg/kg i.v.; for inhibition at 0.1 mg/kg: 100 μg/kg i.v.
Method: For example, the antagonistic activity against isoproterenol (as an indication of β-adrenergic nerves blocking activity) of the 3,4-dihydrocarbostyril derivatives of the present invention was measured according to a method as described in R. D. Robson and H. R. Kaplan, "J. Pharmacol. Exp. Therap.," Vol. 175, page 157 (1970) as follows:
Mongrel dogs of both sexes weighing 9.7 - 19.0 kg were anesthetized with pentobarbital-Na (30 mg/kg, i.v.) and fixed on their back. Anesthesia was maintained by continuous intravenous infusion of pentobarbital-Na at a rate of 4 mg/kg/hour.
Arterial blood pressure was measured from the left femoral artery with a pressure transducer (Nihon Kohden, RP-3). The left femoral vein was cannulated for i.v. injection of drugs. Heart rate was measured with a tachometer (San-ei, type 2130) treggered by the R wave of ECG (Lead II). Blood pressure and heart rate were simultaneously recorded on an ink-writing recorder (San-ei, type 145).
Test drugs were cumulatively injected at intervals of 10 minutes after reproducibility test on the positive chronotropic and hypotensive actions of a submaximal dose of 0.3 μg/kg of isoproterenol. At the time when responses of blood pressure and heart rate to these test drugs were stabilized, at about 3 minutes after injection, isoproterenol 0.3 μg/kg was injected again. Their antagonistic activities were determined from difference between responses to isoproterenol before and after administration of the test drugs and expressed as % inhibition.

[1] = Hypotensive action, arterial blood pressure in anesthetized dogs; assay type: in vivo, Mongrel dogs; settings: cumulative, anesthetized dog
Method: Mongrel dogs of both sexes weighing 9.7 - 19.0 kg were anesthetized with pentobarbital-Na (30 mg/kg, i.v.) and fixed on their back. Anesthesia was maintained by continuous intravenous infusion of pentobarbital-Na at a rate of 4 mg/kg/hour. After the vinyl catheter was inserted in the left femoral vein, heparin sodium, 1000 U/kg, was intravenously injected in order to prevent blood coagulation. Arterial blood pressure was measured from the left femoral artery with a pressure transducer (Nihon Kohden, RP-3). Test drugs were dissolved in 0.9% physiological saline solution and then intravenously administered with the cumulative method at intervals of 5 - 10 minutes.

Acute toxicity (LD50) = settings: in vivo
[2] = blood pressure, read-out: Antagonistic Activity against Isoproterenol (% Inhibition of changes in BP)
[3] = heart rate, read-out: Antagonistic Activity against Isoproterenol (% Inhibition of changes in HR)

Compound | inhibition at 0.0001 mg/kg (β-adrenergic nerves; [2]) [%] | inhibition at 0.001 mg/kg (β-adrenergic nerves; [2]) [%] | inhibition at 0.01 mg/kg (β-adrenergic nerves; [2]) [%] | inhibition at 0.1 mg/kg (β-adrenergic nerves; [2]) [%] | inhibition at 0.0001 mg/kg (β-adrenergic nerves; [3]) [%] | inhibition at 0.01 mg/kg (β-adrenergic nerves; [3]) [%] | inhibition at 0.1 mg/kg (β-adrenergic nerves; [3]) [%] | Hypotensive Action (Blood Pressure mmHg) ([1]; 0.1 μg/kg i.v.) [mmHg] | Hypotensive Action (Blood Pressure mmHg) ([1]; 1.0 μg/kg i.v.) [mmHg] | Hypotensive Action (Blood Pressure mmHg) ([1]; 10 μg/kg i.v.) [mmHg] | Hypotensive Action (Blood Pressure mmHg) ([1]; 100 μg/kg i.v.) [mmHg] | LD50 (Acute toxicity (LD50); iv) [mg/kg] | LD50 (Acute toxicity (LD50); po) [mg/kg] | other results
CC(C)(C)NCC(O)COc1ccc(O)c2c1CCC(=O)N2 (centres unmarked) [drawing 12] | 18.4 | 64.6 | 94.8 | 100 | 5.1 | 97.5 | 100 |  |  |  |  |  |  | inhibition at 0.001 mg/kg (β-adrenergic nerves; [3]): 44.5%
COc1ccc(OCC(O)CNC(C)(C)C)c2c1NC(=O)CC2 (centres unmarked) [drawing 13] | 40.6 | 54.4 | 77.1 | 82.2 | 7 | 39.8 | 80.5 |  |  |  |  |  |  | 
CC(C)(C)NCC(O)COc1ccc(OCc2ccccc2)c2c1CCC(=O)N2 (centres unmarked) [drawing 14] | 20 | 10.9 | 12.6 | 8.4 | 13.5 | 21.4 | 65.4 |  |  |  |  |  |  | inhibition at 0.001 mg/kg (β-adrenergic nerves; [3]): 13.5%
CC(C)(C)NCC(O)COc1ccc(O)c2c1CCC(=O)N2 (centres unmarked) [drawing 15] |  |  |  |  |  |  |  | -1.6 | -5.4 | -11.8 | -30.6 |  |  | 
COc1ccc(OCC(O)CNC(C)(C)C)c2c1NC(=O)CC2 (centres unmarked) [drawing 16] |  |  |  |  |  |  |  | 0.0 | -2.0 | -3.5 | -5.5 |  |  | 
CC(C)(C)NCC(O)COc1ccc(OCc2ccccc2)c2c1CCC(=O)N2 (centres unmarked) [drawing 17] |  |  |  |  |  |  |  | -1.0 | -4.5 | -10.5 | -16.0 |  |  | 
CC(C)(C)NCC(O)COc1ccc(O)c2c1CCC(=O)N2 (centres unmarked) [drawing 18] |  |  |  |  |  |  |  |  |  |  |  | 94 | 1380 | 
COc1ccc(OCC(O)CNC(C)(C)C)c2c1NC(=O)CC2 (centres unmarked) [drawing 19] |  |  |  |  |  |  |  |  |  |  |  | 83 | 1210 | 
CC(C)(C)NCC(O)COc1ccc(OCc2ccccc2)c2c1CCC(=O)N2 (centres unmarked) [drawing 20] |  |  |  |  |  |  |  |  |  |  |  | 80 | 1150 | 
